Measurements reported in PMC11677527, “Predicting Pharmacokinetics of Active Constituents in Spatholobi caulis by Using Physiologically Based Pharmacokinetic Models” (Pharmaceuticals, 2024).
Where two headings read alike, the source gives them in different places.

Tests used:
[1] = Observed pharmacokinetics in rats after oral SPC (previous study); format: in vivo, rat; conditions: p.o. SPC
[2] = Verification pharmacokinetic experiment in rats, SPC 60 g crude drug/kg by gavage, UFLC-MS/MS, DAS 2.0; format: in vivo, rat
Experimental: To validate the accuracy of PBPK models in predicting the pharmacokinetics of SPC constituents at different oral doses, the pharmacokinetic behavior of these four constituents from SPC in rats were analyzed by UFLC-MS/MS. The parameters were calculated using Drug and Statistics Software version 2.0, and then these validated values (Val.) were used to check the accuracy of the Calc. values and evaluated by FE.
The pharmacokinetic fitting results of rats given 60 g crude drug/kg body weight of SPC by gavage were verified by experiments. The verification experiment was conducted according to our previous pharmacokinetic study. In brief, 1.5 mL suspension of SPC was given to rats by oral administration; 300 μL blood samples from orbital venous at 0.083, 0.25, 0.5, 0.75, 1.0, 1.5, 2, 3, 4, 6, 8, and 12 h were collected and pretreated with heparin sodium. After centrifugation, the plasma samples were obtained and further processed for subsequent detection by UFLC-MS/MS; the detailed analysis method is shown in Supplementary Data (Table S1 and Figure S1). The concentration-time curve of each compound was gained, and the pharmacokinetic parameters were calculated using DAS 2.0 software (DAS 2.0, Mathematical Pharmacology Professional Committee of China, Shanghai, China). The results of these four constituents were compared with the PBPK parameters predicted in rats at an oral dose of 60 g crude drug/kg body weight of SPC.
1. The instrument and analytical conditions of UFLC-MS/MS method
4 constituents (1. 3′-methoxydadizein; 2. 8-O-methylretusin; 3. Daidzin; and 4. […]
The internal standard (IS) carbamazepine with a purity of more than 99 % was purchased from Beijing JK-chemical technology Co. Ltd., (Beijing China). Heparin sodium was gained from Tianjin biochemical pharmaceutical Co. Ltd, (Tianjin, China).
Ammonium acetate of HPLC grade, methanol and acetonitrile of LC-MS grade were purchased from Sigma (LOT# BCBK6717V, sigma-aldrich, Co., MO, USA) and Fisher (Fisher Corp., Fair lawn, NJ, USA) respectively. The experimental ultrapure water was prepared by Millipore Milli-Q ultrapure water preparation apparatus (Millipore Sigma, […]
The detailed information of Shimadzu UFLC-MS/MS 8050 liquid mass system equipped with Nexera X2UFLC liquid chromatography system and 8050 triple quadrupole mass spectrometers with an electrospray ionization source were listed in our previous study. The supporting LabSolution workstation was used for data […]
The separation without superposition of analytes in plasma sample was achieved on a Kinetex® C18 chromatographic column (100mm×2.1mm i.d.; 2.6 μm, 100 Å; Phenomenex, Inc., Torrance, CA, USA) assembled with a Phenomenex p/n AJ0-9000 C18 protection column. The mobile phase was consisted of 0.5 mM ammonium acetate in water (A) and ACN (B). The gradient elution program was selected ultimately as […]
95 % B (18.7–22 min). Column and automatic sampler temperature were set as 30 °C and 4 °C respectively. The flow rate of mobile phase was 0.35 mL/min while sample injection volume was 4 μL.
Multiple reaction monitoring (MRM) of positive or negative modes were used as scanning modes for the analytes and IS. Other essential parameters were successively optimized as: Nebulizing gas flow, 3 L/min; Heating gas flow, 10 L/min; Drying gas flow, 10 L/min; Interface temperature, 300 °C; DL temperature, 250 °C; Interface and detector voltage were each set as 3.0 kV and 1.8 kV. The detection parameters such as retention time (RT), dwell time (DT), quadrupole 1 pre-rod bias (Q1), collision energy […]
Table S1 The retention time and ion equivalent parameters of 4 constituents in rat […]
Constituents Retention Precursor Precursor Product time Pre energy Pre time (min) ion species ion ion (msec) Bias (V) Bias

[3] = tested on: Caco-2 cell monolayer; parameters: method as in PMID 36680806, PMID 26501241; conditions: Caco-2 cell monolayer model; cited from earlier work
[4] = parameters: method as in PMID 34303214; conditions: rats, p.o. SPC 30 g crude drug/kg; doses of 1-4: 0.062, 0.11, 0.71, 1.31 mg/kg; cited from earlier work
[5] = compartment model parameters, DAS 2.0, rats p.o. SPC 60 g crude drug/kg, Mean, 5 rats
[6] = statistical moment parameters, DAS 2.0, rats p.o. SPC 60 g crude drug/kg, Mean, 5 rats
[7] = statistical moment parameters, DAS 2.0, rats p.o. SPC 60 g crude drug/kg, Mean, 5 rats, in µg·h²/mL

With `O=c1c(-c2ccc(O)cc2)coc2cc(O[C@@H]3O[C@H](CO)[C@@H](O)[C@H](O)[C@H]3O)ccc12` [Constituent 3, daidzin] the “time of slight secondary absorption peak” value [1] was 6 h, the K10 [2, 5] was 0.981 h⁻¹ and the K12 [2, 5] was 0.402 h⁻¹. For the same molecule, the K21 [2, 5] was 0.15 h⁻¹, the Ka [2, 5] was 16.131 h⁻¹ and the Tlag [2, 5] was 0 h. It also gave a V1/F [2, 5] of 37.289 L/kg, a t1/2Ka [2, 5] of 0.385 h and a t1/2α [2, 5] of 0.868 h. It also gave a concentration at 0.083 h ([2]; rat, plasma, oral, time 0.083 h, rats p.o. SPC 60 g crude drug/kg, doses of 1-4: 0.124, 0.22, 1.4, 2.62 mg/kg, 5 rats) of 16.4 ng/mL, a concentration at 0.25 h ([2]; rat, plasma, oral, time 0.25 h, rats p.o. SPC 60 g crude drug/kg, doses of 1-4: 0.124, 0.22, 1.4, 2.62 mg/kg, 5 rats) of 28 ng/mL and a concentration at 0.5 h ([2]; rat, plasma, oral, time 0.5 h, rats p.o. SPC 60 g crude drug/kg, doses of 1-4: 0.124, 0.22, 1.4, 2.62 mg/kg, 5 rats) of 21 ng/mL. For the same molecule, the concentration at 0.75 h ([2]; rat, plasma, oral, time 0.75 h, rats p.o. SPC 60 g crude drug/kg, doses of 1-4: 0.124, 0.22, 1.4, 2.62 mg/kg, 5 rats) was 18.4 ng/mL, the concentration at 1 h ([2]; rat, plasma, oral, time 1 h, rats p.o. SPC 60 g crude drug/kg, doses of 1-4: 0.124, 0.22, 1.4, 2.62 mg/kg, 5 rats) was 10.9 ng/mL and the concentration at 1.5 h ([2]; rat, plasma, oral, time 1.5 h, rats p.o. SPC 60 g crude drug/kg, doses of 1-4: 0.124, 0.22, 1.4, 2.62 mg/kg, 5 rats) was 5.55 ng/mL. It also gave a concentration at 2 h ([2]; rat, plasma, oral, time 2 h, rats p.o. SPC 60 g crude drug/kg, doses of 1-4: 0.124, 0.22, 1.4, 2.62 mg/kg, 5 rats) of 3.16 ng/mL, a concentration at 3 h ([2]; rat, plasma, oral, time 3 h, rats p.o. SPC 60 g crude drug/kg, doses of 1-4: 0.124, 0.22, 1.4, 2.62 mg/kg, 5 rats) of 2.62 ng/mL and a concentration at 4 h ([2]; rat, plasma, oral, time 4 h, rats p.o. SPC 60 g crude drug/kg, doses of 1-4: 0.124, 0.22, 1.4, 2.62 mg/kg, 5 rats) of 1.56 ng/mL. The concentration at 6 h ([2]; rat, plasma, oral, time 6 h, rats p.o. SPC 60 g crude drug/kg, doses of 1-4: 0.124, 0.22, 1.4, 2.62 mg/kg, 5 rats) was 1.39 ng/mL, the concentration at 8 h ([2]; rat, plasma, oral, time 8 h, rats p.o. SPC 60 g crude drug/kg, doses of 1-4: 0.124, 0.22, 1.4, 2.62 mg/kg, 5 rats) was 1.18 ng/mL and the AUC(0-t) ([2]; rat, plasma, po, 1.4 mg/kg, compartment model parameters, DAS 2.0, rats p.o. SPC 60 g crude drug/kg, Mean, 5 rats, read-out: AUC(0-t)) was 37.1 ng·h/mL. It also gave an AUC(0-inf) ([2]; rat, plasma, po, 1.4 mg/kg, compartment model parameters, DAS 2.0, rats p.o. SPC 60 g crude drug/kg, Mean, 5 rats, read-out: AUC(0-∞)) of 39.5 ng·h/mL, a CL/F ([2]; rat, plasma, po, 1.4 mg/kg, compartment model parameters, DAS 2.0, rats p.o. SPC 60 g crude drug/kg, Mean, 5 rats, read-out: CL/F (converted)) of 594 mL/min/kg and a half-life ([2]; rat, plasma, po, 1.4 mg/kg, compartment model parameters, DAS 2.0, rats p.o. SPC 60 g crude drug/kg, Mean, 5 rats, read-out: t1/2β (converted)) of 36.5 h. For the same molecule, the AUC(0-t) ([2]; rat, plasma, po, 1.4 mg/kg, statistical moment parameters, DAS 2.0, rats p.o. SPC 60 g crude drug/kg, Mean, 5 rats, read-out: AUC(0-t)) was 35.5 ng·h/mL, the AUC(0-inf) ([2]; rat, plasma, po, 1.4 mg/kg, statistical moment parameters, DAS 2.0, rats p.o. SPC 60 g crude drug/kg, Mean, 5 rats, read-out: AUC(0-∞)) was 35.9 ng·h/mL and the CL/F ([2]; rat, plasma, po, 1.4 mg/kg, statistical moment parameters, DAS 2.0, rats p.o. SPC 60 g crude drug/kg, Mean, 5 rats, read-out: CLz/F (converted)) was 652 mL/min/kg. It also gave an MRT last ([2]; rat, plasma, po, 1.4 mg/kg, statistical moment parameters, DAS 2.0, rats p.o. SPC 60 g crude drug/kg, Mean, 5 rats, read-out: MRT(0-t)) of 1.83 h, an MRT inf ([2]; rat, plasma, po, 1.4 mg/kg, statistical moment parameters, DAS 2.0, rats p.o. SPC 60 g crude drug/kg, Mean, 5 rats, read-out: MRT(0-∞)) of 2.09 h and a Tmax ([2]; rat, plasma, po, 1.4 mg/kg, statistical moment parameters, DAS 2.0, rats p.o. SPC 60 g crude drug/kg, Mean, 5 rats, read-out: Tmax) of 0.25 h. The Vd/F ([2]; rat, plasma, po, 1.4 mg/kg, statistical moment parameters, DAS 2.0, rats p.o. SPC 60 g crude drug/kg, Mean, 5 rats, read-out: Vz/F) was 103 L/kg, the half-life ([2]; rat, plasma, po, 1.4 mg/kg, statistical moment parameters, DAS 2.0, rats p.o. SPC 60 g crude drug/kg, Mean, 5 rats, read-out: t1/2z (converted)) was 1.82 h and the AUC(0-t) ([2]; rat, plasma, po, 2.62 mg/kg, rats, p.o. SPC 60 g crude drug/kg, doses of 1-4: 0.124, 0.22, 1.42, 2.62 mg/kg, n = 5, read-out: AUC0→t Val.) was 35.5 ng·h/mL. It also gave an AUC(0-inf) ([2]; rat, plasma, po, 2.62 mg/kg, rats, p.o. SPC 60 g crude drug/kg, doses of 1-4: 0.124, 0.22, 1.42, 2.62 mg/kg, n = 5, read-out: AUC0→∞ Val.) of 35.9 ng·h/mL, a Tmax ([2]; rat, plasma, po, rats, p.o. SPC 60 g crude drug/kg, doses of 1-4: 0.124, 0.22, 1.42, 2.62 mg/kg, n = 5, read-out: Tmax Val.) of 0.25 h and a Cmax [2, 6] of 27.183 ng/mL. For the same molecule, the Cz [2, 6] was 0.117 µg/L, the “VRT(0-t)” value [2, 6] was 4.934 h^2 and the “VRT(0-∞)” value [2, 6] was 8.138 h^2. The elimination rate constant [2, 6] was 0.429 h⁻¹, the “AUMC(0-t)” value [2, 7] was 65.207 and the “AUMC(0-∞)” value [2, 7] was 75.236. The Papp [3] was 4 ×10⁻⁶ cm/s, the “AUC0→t Obs.” value [4] was 28.4 ng·h/mL and the “AUC0→∞ Obs.” value [4] was 30.5 ng·h/mL. The “Cmax Obs.” value [4] was 15.1 ng/mL and the “Tmax Obs.” value [4] was 0.21 h.
